Assay [1] concerns the target 5-hydroxytryptamine receptor 4 (Cavia porcellus, UniProt O70528). As to the kind of experiment: Ability to block 5-HT4 receptor mediated effect of 5-HT was assessed in the guinea-pig distal colon longitudinal muscle myenteric plexus preparation (LMMP).
In assay [2] the target is Serotonin 4 (5-HT4) receptor (Sus scrofa, UniProt Q6Q253). As to the kind of experiment: Compound was evaluated for its ability to inhibit the binding of 5-HT4 receptor radioligand [125I]SB 207710 to piglet hippocampal membrane. The class given is tissue-based, Hippocampus.
Chain of Serotonin 4 (5-HT4) receptor (Q6Q253 whole entry): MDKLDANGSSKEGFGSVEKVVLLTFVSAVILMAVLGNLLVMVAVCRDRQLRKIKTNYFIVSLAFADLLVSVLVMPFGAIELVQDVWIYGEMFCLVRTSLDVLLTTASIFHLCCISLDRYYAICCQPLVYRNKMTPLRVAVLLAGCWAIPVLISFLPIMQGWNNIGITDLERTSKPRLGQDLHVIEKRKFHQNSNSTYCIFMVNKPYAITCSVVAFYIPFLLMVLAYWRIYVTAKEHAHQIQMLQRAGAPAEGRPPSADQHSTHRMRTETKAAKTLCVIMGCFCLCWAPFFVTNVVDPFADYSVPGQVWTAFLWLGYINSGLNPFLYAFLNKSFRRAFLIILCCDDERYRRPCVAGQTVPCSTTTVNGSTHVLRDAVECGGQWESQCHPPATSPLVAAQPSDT

Chain of 5-hydroxytryptamine receptor 4 (O70528 whole entry): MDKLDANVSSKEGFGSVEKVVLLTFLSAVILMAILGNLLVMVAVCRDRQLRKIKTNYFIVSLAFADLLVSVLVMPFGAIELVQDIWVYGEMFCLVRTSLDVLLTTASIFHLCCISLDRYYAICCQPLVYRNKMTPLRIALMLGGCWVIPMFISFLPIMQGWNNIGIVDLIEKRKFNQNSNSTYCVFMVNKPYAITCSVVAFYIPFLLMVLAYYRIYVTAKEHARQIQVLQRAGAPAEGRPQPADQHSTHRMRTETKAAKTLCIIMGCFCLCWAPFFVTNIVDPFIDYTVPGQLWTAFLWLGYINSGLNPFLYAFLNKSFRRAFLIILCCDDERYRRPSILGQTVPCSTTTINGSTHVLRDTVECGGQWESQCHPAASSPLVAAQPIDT

In assay [1], `CCCCN1CCC(COC(=O)c2c3n(c4ccccc24)CCO3)CC1` had an IC50 of 0.1 nM. The same compound gave a Ki in assay [2] of 0.0794 nM.

`CCCCN1CCC(COC(=O)c2cc(Cl)c(N)c3c2OCCO3)CC1` gave an IC50 in assay [1] of 0.0794 nM. This compound also gave an inhibitory constant (Ki) in assay [2] of 0.126 nM.

`CCCCN1CCC(COC(=O)c2c3n(c4ccccc24)CCCO3)CC1` had an IC50 in assay [1] of 0.0251 nM. In assay [2], this compound showed an inhibitory constant (Ki) of 0.0631 nM.

Consider `CCCCN1CCC(COC(=O)c2c[nH]c3ccccc23)CC1`, for which the concentration for half-maximal inhibition (IC50) in assay [1] is 0.501 nM. This compound also showed a Ki in assay [2] of 2.51 nM.

Turning to `CCCCN1CCC(COC(=O)c2c3n(c4ccccc24)CCCCO3)CC1`, in assay [1], the concentration for half-maximal inhibition (IC50) was 0.158 nM. The compound further gave an inhibition constant Ki in assay [2] of 0.2 nM.

Source of the values: ChEMBL document CHEMBL1151042, “5-HT4receptor antagonists : oxazolo, oxazino and oxazepino[3,2-a]indole derivatives” (Bioorg Med Chem Lett, 1994).
